Counter-ions that a name gives are not always drawn. Like-named read-outs stand apart in the source and are kept apart here.
Tested on: C. elegans
Assay: microbe, parasite or virus in culture
Details: Caenorhabditis elegans
[1] = 0 h, read-out: Percentage of motility inhibition 0 h, Table S2, C. elegans SS assay, 110 μM, 0 h, averages of 4 data points
[2] = 24 h, read-out: Percentage of motility inhibition 24 h, Table S2, C. elegans SS assay, 110 μM, 24 h, averages of 4 data points
[3] = 0 h, read-out: Percentage of motility inhibition 0 h
[4] = 24 h, read-out: Percentage of motility inhibition 24 h

| SMILES | inhibition at 110 µM [1] [%] | inhibition at 110 µM [2] [%] | inhibition at 110 µM [3] [%] | inhibition at 110 µM [4] [%] |
| --- | --- | --- | --- | --- |
| COc1ccccc1O [Guaiacol] | 6 | 10 |  |  |
| COc1ccccc1OCC(O)CO (stereo not drawn) [Guaifenesin] | 46 | 27 |  |  |
| C/C=C1\C(=O)C[C@H]2[C@@H]3CCC4=CC(=O)CC[C@]4(C)[C@H]3CC[C@]12C [Guggulsterone] |  |  | 0 | 17 |
| O=C(O)C1=CCCNC1 [Guvacine hydrochloride] | 0 | 0 |  |  |
| CC(C)=CCC[C@](C)(O[C@@H]1O[C@H](CO[C@@H]2O[C@H](CO)[C@@H](O)[C@H](O)[C@H]2O)[C@@H](O)[C@H](O)[C@H]1O)[C@H]1CC[C@]2(C)[C@@H]1[C@H](O)C[C@@H]1[C@@]3(C)CC[C@H](O[C@@H]4O[C@H](CO)[C@@H](O)[C@H](O)[C@H]4O)C(C)(C)[C@@H]3CC[C@]12C [Gypenoside XVII] | 4 | 4 |  |  |
| CC1(C)CC[C@]2(C(=O)O)CC[C@]3(C)C(=CC[C@@H]4[C@@]5(C)CC[C@H](O)[C@@](C)(C=O)[C@@H]5CC[C@]43C)[C@@H]2C1 [Gypsogenin] | 10 | 10 |  |  |
| O=C(CC1NCCCC1O)Cn1cnc2cc(Br)c(Cl)cc2c1=O (stereo not drawn) [Halofuginone] | 18 | 11 |  |  |
| Cc1nccc2c1[nH]c1ccccc12 [Harmane] | 0 | 6 |  |  |
| COc1ccc2c(c1)[nH]c1c(C)nccc12 [Harmine] |  |  | 36 | 4 |
| Cc1[nH]ccc2c1[nH]c1cc(=O)ccc12 [Harmol] | 0 | 0 |  |  |
| C[C@]1(OC(=O)/C=C/c2ccccc2)C[C@@H](O)[C@]2(O)C=CO[C@@H](O[C@@H]3O[C@H](CO)[C@@H](O)[C@H](O)[C@H]3O)[C@@H]21 [Harpagoside] | 9 | 30 |  |  |
| COC(=O)C[C@](O)(CCC(C)(C)O)C(=O)O[C@@H]1C(OC)=C[C@]23CCCN2CCc2cc4c(cc2[C@H]13)OCO4 [Harringtonine] |  | 0 |  |  |
| C[C@@H]1O[C@@H](O[C@H]2[C@H](O[C@H]3CC[C@]4(C)[C@H]5CC=C6[C@@H]7CC(C)(C)CC[C@]7(C(=O)O)CC[C@@]6(C)[C@]5(C)CC[C@H]4C3(C)C)OC[C@H](O[C@@H]3O[C@H](CO)[C@@H](O)[C@H](O)[C@H]3O)[C@@H]2O)[C@H](O)[C@H](O)[C@H]1O [Hederacolchiside A1] | 0 | 0 |  |  |
| CC1(C)CC[C@]2(C(=O)O)CC[C@]3(C)C(=CC[C@@H]4[C@@]5(C)CC[C@H](O)[C@@](C)(CO)[C@@H]5CC[C@]43C)[C@@H]2C1 [Hederagenin] |  |  | 30 | 21 |
| C[C@@H]1O[C@@H](O[C@H]2[C@H](O[C@H]3CC[C@]4(C)[C@H]5CC=C6[C@@H]7CC(C)(C)CC[C@]7(C(=O)O[C@@H]7O[C@H](CO[C@@H]8O[C@H](CO)[C@@H](O[C@@H]9O[C@@H](C)[C@H](O)[C@@H](O)[C@H]9O)[C@H](O)[C@H]8O)[C@@H](O)[C@H](O)[C@H]7O)CC[C@@]6(C)[C@]5(C)CC[C@H]4C3(C)C)OC[C@H](O)[C@@H]2O)[C@H](O)[C@H](O)[C@H]1O [Hederasaponin B] | 11 | 3 |  |  |
| O=c1c(O)c(-c2ccc(O)cc2)oc2c(O)c(O)cc(O)c12 [Herbacetin] |  |  | 4 | 13 |
| COc1ccc([C@@H]2CC(=O)c3c(O)cc(O)cc3O2)cc1O [Hesperetin] | 21 | 5 |  |  |
| CCCCC(O)(Cn1cncn1)c1ccc(Cl)cc1Cl (stereo not drawn) [Hexaconazole] | 14 | 22 |  |  |
| CCCCC(CC)CN1CN(CC(CC)CCCC)CC(C)(N)C1 (stereo not drawn) [Hexetidine] | 46 | 39 |  |  |
| O=C(O)[C@H]1O[C@@H](Oc2c(O)cc(O)c3c(=O)c(O)c(-c4ccc(O)c(O)c4)oc23)[C@H](O)[C@@H](O)[C@@H]1O [Hibifolin] | 6 | 1 |  |  |
| COc1c(O)cc2oc(-c3ccc(O)cc3)cc(=O)c2c1O [Hispidulin] |  |  | 0 | 33 |

| SMILES | inhibition at 110 µM [1] [%] | inhibition at 110 µM [2] [%] | inhibition at 110 µM [3] [%] | inhibition at 110 µM [4] [%] |
| --- | --- | --- | --- | --- |
| NCCc1c[nH]cn1 [Histamine] | 5 | 6 |  |  |
| CN(C)CCc1ccc(O)cc1 [Hordenine] | 28 | 10 |  |  |
| CC1=C[C@H]2Cc3[nH]c(=O)ccc3[C@]3(C1)NCCC[C@H]23 [Huperzine B] |  |  | 18 | 8 |
| CCN(CC)CCNc1ccc(CO)c2sc3ccccc3c(=O)c12 [Hycanthone] | 31 | 26 |  |  |
| COc1ccc2c(c1OC)C(=O)O[C@@H]2[C@H]1c2cc3c(cc2CCN1C)OCO3 [Hydrastine] | 0 | 19 |  |  |
| CN1CCc2cc3c(cc2C1O)OCO3 (stereo not drawn) [Hydrastinine] | 1 | 4 |  |  |
| CC[C@H]1CN2CC[C@H]1C[C@H]2[C@H](O)c1ccnc2ccc(OC)cc12 [Hydroquinine] | 0 | 0 |  |  |
| CCN(CCO)CCCC(C)Nc1ccnc2cc(Cl)ccc12 (stereo not drawn) [Hydroxychloroquine sulfate] | 19 | 9 |  |  |
| CN1C(=O)C(O)CC1c1cccnc1 (stereo not drawn) [Hydroxycotinine] | 13 | 0 |  |  |
| C[C@H](CCC(=O)O)[C@H]1CC[C@H]2[C@@H]3C[C@H](O)[C@@H]4C[C@H](O)CC[C@]4(C)[C@H]3CC[C@]12C [Hyodeoxycholic acid] | 2 | 18 |  |  |
| COC[C@@]12CC[C@H](OC)[C@]34C(C([C@H](OC)[C@H]13)[C@]1(OC(C)=O)[C@H]3[C@@H](OC(=O)c5ccccc5)[C@](O)(C[C@H]34)[C@@H](OC)[C@@H]1O)N(C)C2 [Hypaconitine] | 0 | 6 |  |  |
| C[N+](C)(C)[C@@H](Cc1c[nH]c2ccccc12)C(=O)[O-] [Hypaphorine] | 0 | 0 |  |  |
| O=c1c(O[C@@H]2O[C@H](CO)[C@H](O)[C@H](O)[C@H]2O)c(-c2ccc(O)c(O)c2)oc2cc(O)cc(O)c12 [Hyperoside] | 14 | 11 |  |  |
| COc1ccc(-c2oc3c(CC=C(C)C)c(O[C@@H]4O[C@H](CO)[C@@H](O)[C@H](O)[C@H]4O)cc(O)c3c(=O)c2O[C@@H]2O[C@@H](C)[C@H](O)[C@@H](O)[C@H]2O)cc1 [Icariin] |  |  | 30 | 12 |
| COc1ccc(-c2oc3c(CC=C(C)C)c(O)cc(O)c3c(=O)c2O)cc1 [Icaritin] | 0 | 2 |  |  |
| O=c1[nH]c(=O)n([C@H]2C[C@H](O)[C@@H](CO)O2)cc1I [Idoxuridine] | 38 | 11 |  |  |
| C=CCOC(Cn1ccnc1)c1ccc(Cl)cc1Cl (stereo not drawn) [Imazalil] | 35 | 36 |  |  |
| O=C(NCNC(=O)NC1C(=O)NC(=O)N1CO)NC1C(=O)NC(=O)N1CO (stereo not drawn) [Imidazolidinyl urea] | 28 | 10 |  |  |
| O=C(O)CNCC(=O)O [Iminodiacetic acid] | 15 | 0 |  |  |
| C/C1=C\C[C@]2(C(C)C)CC[C@@](C)(O2)[C@@H](O)CC/C(C)=C/CC1 [Incensole] | 2 | 29 |  |  |
